Experimental data from US6942870B2, “Compositions and methods using direct MMP inhibitors for inhibiting photoaging of skin” (The Regents of the University of Michigan, priority 1997, dated 2005).
“Also recorded” adds a separate entry of the source.

Key:
type I collagenase = test: Type I collagenase activity/level in biopsies of UV-exposed human skin; assay type: in vivo; conditions: for collagenase activity after UV exposure: 5% ASA applied 16 hours prior to exposure; for protection against UV-induced type I collagenase activity: 2 MED, 20% NAC or 5% FDO pretreatment; for inhibition of UV-induced increase in collagenase activity: 20% NAC; for inhibition of UV-induced collagenase activity: about 2 MED, 5% topical, about seven hours prior to exposure
Description: (§1) In the following examples, four F36T12 ERE-VHO UV bulbs were used to irradiate human skin. At all times, a Kodocel TA401/407 filter was mounted 4 cm in front of the bulbs to remove UVC radiation (<290 nm). Radiation intensity was monitored using an IL443 phototherapy radiometer and an SED240/UVB/W photodetector (International Light, Newbury, Mass.). Spectroradiometry was performed using an Optronic Labroatories OL 754 system. Total irradiance (290-800 nm) at about 43 cm (17 in.) from the source of four bulbs was about 1.5 mJ/cm^2·s (1.49×10^−3 W/cm^2). The radiation output from this bulb was determined by spectroradiometry to provide about 47% UVB and about 27% UVA (composed of about 9% UVA1 (340-400 nm) and about 18% UVA2 (320-340 nm)), the remainder being visible and IR radiation. An exposure of about 160 seconds under this set of four bulbs is equivalent to an exposure of one MED. Accordingly, when compared with natural sunlight which has 0.5% UVB and 6.5% UVA, it can be seen that the set of four bulbs used in these experiments provides far less UVA radiation than would exposure to the sun of an equivalent amount of UVB.
(§2) In the following examples, a “standard vechicle” of 30% PEG (polyethylene glycol) in 70% ethanol (with 0.05% BHT as preservative) was used. […] MMP activities were measured by zymography.
Matrix metalloproteinase assays. Tissue pieces were frozen in liquid nitrogen immediately after biopsy, homogenized in 20 mM Tris HCl (pH 7.6) plus 5 mM CaCl2, and centrifuged at 3000×g for 10 minutes to remove particulates. Ability to release soluble radioactive fragments from 3H-labeled fibrillar Type I collagen (described by Fisher, G. J., et al., Nature, 379, 335-339 (1996) and Hu, C-L, et al., Analytic. Biochem, 88, 638-643 (1978)) was used as a measure of collagenolytic activity. […] Subsequently, 0.2 μCi of collagen substrate (NEN-DuPont, Boston, Mass.) was incubated for 24 hours with 50 μl of tissue extract. At the end of the 24-hour incubation period, the samples were centrifuged at 12,000×g for 10 minutes to pellet the intact protein. Radioactivity remaining in the supernatant fluid was then measured and from this, the percentage of substrate hydrolzyed was determined.

human skin = test: UV-induced erythema (skin reddening) of human skin after topical pretreatment, chromameter; assay type: in vivo; conditions: for protection against UV-induced erythema / reduction in erythema: 5% ASA or 3.5% vit. C applied 16 hours prior to exposure; for reduction in erythema: vs untreated (vehicle-only) skin; for inhibition of UV-induced erythema: 2 MED, 20% NAC or 5% FDO pretreatment; for prevention of UV-induced erythema: 5% topical, applied about seven hours prior to UV exposure, vs vehicle-treated skin
Description: as §1, §2
Chromameter: erythema (skin reddening) was determined 24 h post-exposure using a commercially available Minolta chromameter (chromameter CR200, model 94401085).

92 KDa gelatinase = test: 92 kDa gelatinase activity/level in biopsies of UV-exposed human skin (gelatin zymography); assay type: in vivo; conditions: for inhibition of UV-induced increase in 92 KDa gelatinase activity: 1 MED, 20% NAC; for inhibition of UV-induced 92 KDa gelatinase activity: 5% topical, about seven hours prior to exposure
Description: as §1, §2
Gelatin zymography (Varani et al., op. cit.) was used to assess MMP-2 (72-kD gelatinase; gelatinase A) and MMP9 (92-kD gelatinase; gelatinase B) activity. Tissue extracts were electrophoresed in an 8.5% SDS-polyacrylamide gel containing 1 mg/ml of gelatin. After electrophoresis, the SDS was removed by three sequential washes in 1% Triton X-100. The first two washes were for 20 minutes each and the last was overnight. Quantitation of hydrolysis zone width was done by laser densitometry.

[1] = UV absorbance characteristics of UVA blocker over UVA1, UVA2 and UVB wavelengths; assay type: physicochemical
Source text: We investigated the effect of pretreatment of skin with a known UVA blocker on both erythema and MMP activity after exposure to 2 MEDs of UV radiation. In particular, we used PARSOL® 1789 (also known as PARSOL A) brand of 4-t-butyl-4′-methoxydibenzoylmethane, which is described in U.S. Pat. No. 4,387,089 (the disclosure of which is incorporated herein by reference). (PARSOL MCX and PARSOL MOX are trademarks for 2-ethylhexyl p-methoxycinnamate, a UVB blocker commonly used in commercial sunscreen, and disclosed in U.S. Pat. No. 4,713,473, the disclosure of which is incorporated herein by reference). The absorbance characteristics of PARSOL® 1789 over the UVA1, UVA2, and UVB wavelengths is shown as the dotted line in FIG. 8A.

[2] = about 2 MED, 5% PARSOL 1789 pretreatment

CC(=O)Oc1ccccc1C(=O)O [ASA, acetyl salicylic acid]
collagenase activity after UV exposure (type I collagenase; 1 MED, vs untreated skin): not effective at preventing elevated collagenase activity
collagenase activity after UV exposure (type I collagenase; 1 MED, vs untreated skin, listed as aspirin): greater collagenase activity than untreated skin
protection against UV-induced erythema (human skin; 1 MED): provided protection against erythema
protection against UV-induced erythema (human skin; 1 MED, listed as aspirin): reduced the UV-induced erythema
reduction in erythema (human skin; 1 MED): about 30%

O/N=C(/C(=N/O)c1ccco1)c1ccco1 [FDO, 2-furildioxime]
protection against UV-induced type I collagenase activity (type I collagenase): some protection against MMP induction
inhibition of UV-induced erythema (human skin): effective at preventing erythema; also recorded: completely inhibited erythema

CC(=O)N[C@@H](CS)C(=O)O [NAC, N-acetyl cysteine]
inhibition of UV-induced increase in collagenase activity (type I collagenase; 1 MED, four hour pretreatment): ineffective
inhibition of UV-induced increase in collagenase activity (type I collagenase; 1 MED, seven hour pretreatment): provided an inhibitory effect
protection against UV-induced type I collagenase activity (type I collagenase): effective at preventing increased MMP activity; also recorded: significant protection against collagenase activity
inhibition of UV-induced increase in 92 KDa gelatinase activity (92 KDa gelatinase; four hour pretreatment): ineffective
inhibition of UV-induced increase in 92 KDa gelatinase activity (92 KDa gelatinase; seven hour pretreatment): provided an inhibitory effect
anti-redness effect on UV-exposed skin (human skin; 1 MED, 20% NAC, four or seven hours prior to exposure): no anti-redness effect
inhibition of UV-induced erythema (human skin): no effect against erythema

COc1ccc(C(=O)CC(=O)c2ccc(C(C)(C)C)cc2)cc1 [PARSOL® 1789, 4-t-butyl-4′-methoxydibenzoylmethane]
gelatinase activity vs UV-exposed vehicle-treated skin (92 KDa gelatinase; [2]): significantly reduced
gelatinase activity vs vehicle-treated unexposed skin (92 KDa gelatinase; [2]): not significantly different from vehicle-treated unexposed skin
blocking of UVA1 radiation (absorbance) ([1]; UVA1 wavelengths): somewhat effective at blocking UVA1 radiation
blocking of UVA2 radiation (absorbance) ([1]; UVA2 wavelengths): especially useful at blocking UVA2 radiation
protection from UV-induced erythema (sunburn) (human skin; [2]): does provide some protection

COc1ccc2[nH]cc(CCNC(C)=O)c2c1 [melatonin]
inhibition of UV-induced collagenase activity (type I collagenase): neither melatonin nor vitamin E (both with pretreatment) prevented induction of MMPs; also recorded: did not function to inhibit the increased MMP activity
inhibition of UV-induced 92 KDa gelatinase activity (92 KDa gelatinase; about 2 MED): neither melatonin nor vitamin E (both with pretreatment) prevented induction of MMPs; also recorded: did not function to inhibit the increased MMP activity
prevention of UV-induced erythema (human skin; about 2 MED): significantly reduced the erythema
prevention of UV-induced erythema (human skin; about 2 MED, listed as Melatonin): does appear to prevent erythema

CC1=C(/C=C/C(C)=C/C=C/C(C)=C/CO)C(C)(C)CCC1 [retinol]
prevention of UV-induced elevation in type I collagenase activity (type I collagenase; suberythemal 0.5 MED, 0.1% retinoic acid or 1% retinol pretreatment): about as effective as retinoic acid

O=C1O[C@H]([C@@H](O)CO)C(O)=C1O [vitamin C, ascorbic acid]
reduction in collagenase activity (type I collagenase; 1 MED, 3.5% vit. C applied 16 hours prior to exposure, vs untreated skin): ~25%
protection against UV-induced erythema (human skin; 1 MED): provided protection against erythema; also recorded: reduced the UV-induced erythema
reduction in erythema (human skin; 1 MED): about 30%

vitamin E
inhibition of UV-induced collagenase activity (type I collagenase): neither melatonin nor vitamin E (both with pretreatment) prevented induction of MMPs; also recorded: did not function to inhibit the increased MMP activity
inhibition of UV-induced 92 KDa gelatinase activity (92 KDa gelatinase; about 2 MED): neither melatonin nor vitamin E (both with pretreatment) prevented induction of MMPs; also recorded: did not function to inhibit the increased MMP activity
prevention of UV-induced erythema (human skin; about 2 MED): significantly reduced the erythema
prevention of UV-induced erythema (human skin; about 2 MED, listed as Vitamin E): slightly worse but still very effective at preventing erythema
